The structures appear in SMILES notation.

The values below come from US20110045102A1, “Cancer chemotherapy compositions comprising PI3K pathway modulators and triptolide” (priority 2005, published 2011).

One assay relates to OCC1-SEAP cells. Nature of the assay: OCC1-SEAP cell response to carboplatin in vitro (DNA per well, SEAP in medium). Format: cell-based, human. How it is done: OCC1-SEAP-12 cells were grown in Ham's F-12 medium (Gibco) plus 10% calf serum then collected into Hank's balanced salt solution and counted for injection into nude mice. For in vitro assays OCC1-SEAP-12 cells were plated at sequential twofold dilutions and allowed to adhere to culture wells and incubated for 24 hours. Alternatively, OCC1-SEAP-12 cells were grown to 80% confluence in Ham's F-12 medium plus 10% calf serum. Cells were starved for 48 hours in DMEM plus 0.1% BSA and 0.1% calf serum. Experimental treatments were applied for 2 days in DMEM plus 0.1% BSA and 0.1% calf serum. At the end of the treatment period a sample of culture medium was taken for SEAP level determination. DNA assays were performed by discarding the remaining culture medium from over the cells, adding buffer solution, sonicating the cells in each well, and measuring the fluorescence of cell solution into which SYBR Green I fluorescent dye (Molecular Probes, Eugene, Oreg.) had been incorporated as previously described (Parrott and Skinner 1999).
Blood plasma and cell culture medium samples were assayed for SEAP activity using the Great EscAPe SEAP fluorescence detection kit (Clontech Laboratories, Palo Alto, Calif.). SEAP is secreted at a constant rate by transfected tumor cells and distributed throughout the body or into the culture medium. SEAP is heat stable, so any endogenous alkaline phosphatase activity in blood plasma is destroyed by heat treatment of the samples (65° C. for 30 minutes) during the assay. The SEAP enzyme in each sample acts on the substrate 4-methylumbelliferyl phosphate during a 1 hour incubation at room temperature to produce a fluorescent product with excitation and emission peaks at 360 and 449 nm, respectively. A fluorimeter is then used to measure SEAP activity. The intra-assay and inter-assay coefficients of variation were 2.5% and 18.8%, respectively. Blood plasma samples were diluted 1:100 prior to the assay to bring values within the linear range of the standard curve.

In the next assay the test system is OCC1-SEAP tumor. Nature of the assay: Nude mouse tumor model, intraperitoneal OCC1-SEAP cells, plasma SEAP (Example II). Format: in vivo. Conditions: carboplatin 60 mg/kg every other day for 5 days. The text has this: Athymic nude mice (NCR Nu/Nu) were either purchased from Taconic (Germantown, N.Y.) or bred in-house at Washington State University, Pullman, Wash. The OCC1-SEAP cells were collected in Hank's balanced salt solution and counted prior to injection. Treatments were initiated 7 to 10 days following an intraperitoneal inoculation of mice with 1×10^7 OCC1-SEAP cells, as described above, in Example I.
Stock solutions of carboplatin (paraplatin; Bristol-Myers Squibb, Princeton, N.J.) and TPL (Calbiochem, CA), were prepared in sterile filtered PBS and DMSO, respectively. Animals received intraperitoneal injections of either vehicle controlled (PBS containing 4% DMSO), or carboplatin (60 mg/kg), alone, or in combination with TPL (0-1.0 mg/kg), every other day for 5 days. Alternatively, TPL (0.15 mg/kg) was injected every day for 10 days. For these experiments, carboplatin was administered under the same schedule of every other day for 5 days. Some mice were also treated with 40 mg/kg of LY294002 every other day for 5 days, with an intraperitoneal injection in the presence of TPL and carboplatin. Blood samples were collected into capillary tubes from saphenous vein lancings at regular intervals during and following treatments. The capillary tubes were centrifuged and the plasma samples were frozen at −20° C., until the time of SEAP assay. The Washington State University Animal Care and Use Committee approved all procedures.
Blood plasma and cell culture medium samples were assayed for SEAP activity using the Great EscAPe SEAP fluorescence detection kit (Clontech Laboratories, Palo Alto, Calif.), as described above in Example I. Blood plasma samples were diluted 1:100, prior to the assay to bring values within the linear range of the standard curve. The intraassay and interassay coefficients of variation were 2.5% and 18.8%, respectively. In the case of the experiments in which mice were treated with a combination of TPL, LY294002 and carboplatin, there was some variation in the extent of tumor growth in the control mice. In order to better compare response to treatment across experiments, the SEAP assay data between experiments were normalized by dividing each data point by the overall mean of all SEAP measurements from that experiment and up, through day 18. The normalized data then reflect the relative tumor burden of each mouse, compared to others in the experimental group, and can be combined across experiments.

The subject of a further assay is OCC1-SEAP-12 cells. Put plainly: DNA laddering on agarose gel (Example III). Format: cell-based, human. Particulars: 48 hr and 72 hr. How it is done:
Following 48 hr to 72 hr treatment incubations, cells were suspended into culture medium and pelleted in tubes. DNA was isolated from collected cells using a Puregene™ DNA isolation kit (Gentra Systems, Minneapolis, Minn.). The quantity and purity of nucleic acid preparations were estimated by measuring the optical density of each sample A260/A280). DNA preparations (10 μg/well) were loaded onto 1.2% agarose gels and visualized with ethidium bromide stain.

For a further assay, the system named is caspase 3. Put plainly: Western blot for active caspase 3 (Example III). Format: cell-based, human. Conditions: LY294002 10 μM, carboplatin 50 μg/ml. How it is done: The OCC1-SEAP-12 cells were grown to 80% confluence. Cultures were incubated in DMEM plus 0.1% bovine serum albumin (BSA) and 0.1% BCS to which either vehicle control, carboplatin (0-50 μg/ml), LY294002 (0-20 μM) or combinations of these treatments. Following 24, 48 or 72 hr cells were lysed with sample buffer (62.5 mM Tris-HCl, pH 6.8, 2% SDS, 5% glycerol, […], 0.5% β-mercaptoethanol). Total cell lysates were subjected to SDS polyacrylamide gel electrophoresis 9 page) and transferred to PVDF membranes (Millipore, Bedford, Mass.). Membranes were immunoblotted with antibodies to both the phosphorylated and non-phosphorylated forms of […] (Cell Signaling Technology, Beverly, Mass.), or alternatively, with antibodies to cleaved and full length caspase-3 (Cell Signaling Technology, Beverly, Mass.).
(In general: In western blotting, separated proteins are transferred to a membrane and probed.)

Turning to `N.N.O=C([O-])C1(C(=O)[O-])CCC1.[Pt+2]` [carboplatin], the “normalized SEAP production (SEAP per amount of DNA per well)” value in the assay with OCC1-SEAP cells (60 micro g/ml carboplatin for 48 hours vs control) was “did not change”. In the assay on OCC1-SEAP cells (60 micro g/ml carboplatin for 48 hours, control cells 11.1), the “SEAP levels in culture medium” value turned out to be 3.9 ng per 25 micro liter. For the same molecule, the DNA levels with OCC1-SEAP cells (60 micro g/ml carboplatin for 48 hours, control cells 58 micro g/ml) is 35 micro g/ml. In the assay with OCC1-SEAP tumor (high dose, short duration: TPL 0.5 mg/kg), the “tumor burden vs vehicle control (FIG. 11)” value is “no significant difference”. Besides, in the assay on OCC1-SEAP tumor (low dose, long duration: TPL 0.15 mg/kg every day for 10 days), the “tumor burden as measured by SEAP levels vs vehicle control (FIG. 12)” value was “no significant difference”. The DNA laddering entry in the assay on OCC1-SEAP-12 cells was “observed”. Also, the “time at which active 17 kDa caspase 3 appears” value in the assay with caspase 3 was 48 h.
